One assay relates to AT1 receptor. Details: method as in PMID 15785012. The conditions noted are these: cited from earlier work.
Assay [1] relates to human coronary artery smooth muscle cells. The arrangement: method as in PMID 15785012. The conditions noted are these: as well as a stably expressed AT1 receptor cell line; cited from earlier work.
Assay [2] has as its target T1, AT1 wild-type receptor (Rattus norvegicus, UniProt P25095).
T1 construct: expressed in transfected cells; host or cells: COS7
T1 sequence (P25095 1-359): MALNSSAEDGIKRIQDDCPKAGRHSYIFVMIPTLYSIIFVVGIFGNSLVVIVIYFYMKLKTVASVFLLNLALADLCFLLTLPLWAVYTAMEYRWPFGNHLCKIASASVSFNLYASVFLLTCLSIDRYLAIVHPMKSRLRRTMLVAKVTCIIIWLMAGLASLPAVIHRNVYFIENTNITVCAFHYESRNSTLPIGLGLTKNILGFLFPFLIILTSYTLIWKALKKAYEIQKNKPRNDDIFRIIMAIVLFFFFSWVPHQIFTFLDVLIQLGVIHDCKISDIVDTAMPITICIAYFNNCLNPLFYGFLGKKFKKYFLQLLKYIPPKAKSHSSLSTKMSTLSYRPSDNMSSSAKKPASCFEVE
The assay is described as follows: IP production assay in COS7 cells expressing AT1 wild-type receptor. Type of assay: cell-based. The conditions noted are these: AT1 wild-type receptor, COS7 cells; 1 µM ligands or 0.1 µM Ang II, 30 min; n = 5; vs. (-). As to the method: (§1) The synthetic rat AT1 receptor gene, which was cloned in the shuttle expression vector pMT-2, was used for expression and mutagenesis, as described previously. […] In the experiments, cells were grown without a cell-growth supplement. To express the AT1 receptor protein, 10 µg of purified plasmid DNA per 10^7 cells was used in the transfection. Wild-type and mutated AT1 receptors were transiently transfected into cells using Lipofectamine 2000 liposomal reagent (Roche Applied Science, Penzberg, Germany). Cells were plated and grown and were 70–90% confluent at the time of transfection. We incubated plasmid DNA (10 µg)–lipid (10 µL) complexes for 5 min at room temperature and added and incubated the complexes with cells for 24 h. We then analyzed the parameters in transfected cells. […] Transfected cells that had been cultured for 48–72 h were harvested. Cell membranes were prepared using the nitrogen Parr bomb disruption or freeze–thaw methods.
(§2) Ligand (such as agonist or antagonist)-induced IP production through the AT1 receptor in transfected COS7 cells transiently expressing the AT1 receptor was measured to evaluate cell signaling as a second messenger for controlling blood pressure, since the increases in the intracellular Ca^2+ concentration were the result of IP accumulation, which indicated vasoconstriction. As a surrogate model with higher levels of AT1 receptor expression, COS7 cells are suitable for IP measurement because it is easy to detect differences in IP production. Cells were labeled for 24 h with [^3H]-myoinositol at 37 °C in DMEM containing 10% FBS. Next, the cells were washed with buffer 3 times and incubated with a medium containing 10 mM LiCl for 20 min; 0.1 µM Ang II or 1 µM ligands were added and incubation was continued for another 30 min at 37 °C. After incubation, the medium was removed, and total soluble IP was extracted from the cells using the perchloric acid extraction method, as described previously. Cells were plated at a field density of 5 × 10^3 cells/cm^2 in 60 mm dishes and cultured in a fresh growth medium at 37 °C in a DMEM 5% CO2 incubator. […] The culture medium was changed 48 h after transfection and 1.5 mL of 1 μCi/mL of [^3H]-myoinositol was added to each 60-mm dish at 37 °C in DMEM containing 10% FBS. After labeling, the cells were washed with buffer 3 times and incubated with a medium containing 10 mM LiCl for 20 min. The indicated concentration of ligands was added and incubation was continued for an additional 30 min at 37 °C. After incubation, the medium was removed, and total soluble IP was extracted from the cells using the perchloric acid extraction method. Total IP production was expressed as the sum of radioactivity, as described previously.

Assay [3] deals with T2, AT1 L112A receptor (Rattus norvegicus, UniProt P25095, L112A).
T2 construct: expressed in transfected cells; host or cells: COS7
T2 sequence (P25095 1-359 L112A): T1 sequence (P25095 1-359) with L112A
The assay is described as follows: IP production assay in COS7 cells expressing AT1-L112A receptor. Type of assay: cell-based. As to conditions: 1 µM ligands or 0.1 µM Ang II, 30 min, n = 5, vs. (-). Here is the method:
as §1, §2

Assay [4] has as its target T3, AT1 Q257A receptor (Rattus norvegicus, UniProt P25095, Q257A).
T3 construct: expressed in transfected cells; host or cells: COS7
T3 sequence (P25095 1-359 Q257A): T1 sequence (P25095 1-359) with Q257A
The assay is described as follows: IP production assay in COS7 cells expressing AT1-Q257A receptor. The conditions noted are these: 1 µM ligands or 0.1 µM Ang II, 30 min, n = 5, vs. (-). It is filed as cell-based. Here is the method: as §1, §2

The target of assay [5] is T1, AT1 wild-type receptor. The assay is described as follows: Immunoblotting of ERK 1/2 activation in COS7 cells overexpressing AT1 wild-type receptor. As to conditions: AT1 wild-type receptor, COS7 cells; 1 µM ligands or 0.1 µM Ang II, 10 min; n = 5; vs. (-). It is filed as cell-based. As to the method:
as §1
(§3) In in vitro studies, ERK 1/2 activation by 1 µM ligands or 0.1 µM Ang II incubated for 10 min was measured using COS7 cells that overexpressed AT1 wild-type and mutant receptors. ERK activity was measured in cells maintained for 18 h in DMEM containing 0.1% serum. At the end of the stimulation, the culture medium was removed by aspiration, the cells were washed with ice-cold phosphate-buffered saline, and the dishes were frozen in liquid nitrogen. The cells were scraped using a scraper after melting, and the scraped cells were transferred to a tube. We homogenized the cells in lysis buffer plus protease inhibitors and determined the protein concentration using the bicinchoninic acid method. […] We fractionated total proteins using sodium dodecyl sulfate polyacrylamide gel electrophoresis; we then transferred the proteins to a Hybond nitrocellulose membrane and blocked the blotted membranes with 10% bovine serum albumin in tris-buffered saline buffer (50 mM Tris–HCl pH 7.6, 150 mM NaCl) for 1 h at room temperature. […] An enhanced chemiluminescent substrate system (Amersham, Buckinghamshire, UK) was used. The signal was independently quantified by digital image analysis (ImageJ, National Institutes of Health, Bethesda, MD, USA).

Assay [6] concerns the target T2, AT1 L112A receptor. The assay is described as follows: Immunoblotting of ERK 1/2 activation in COS7 cells overexpressing AT1-L112A receptor. It is filed as cell-based. The conditions noted are these: 1 µM ligands or 0.1 µM Ang II, 10 min, n = 5, vs. (-). Here is the method:
as §1, §3
In general terms: A western blot detects proteins with antibodies after separation by electrophoresis.

The target of assay [7] is T3, AT1 Q257A receptor. The assay is described as follows: Immunoblotting of ERK 1/2 activation in COS7 cells overexpressing AT1-Q257A receptor. As to conditions: 1 µM ligands or 0.1 µM Ang II, 10 min, n = 5, vs. (-). Type of assay: cell-based. As to the method: as §1, with “Cell membranes were prepared using the nitrogen Parr bomb disruption or freeze–thaw methods.” left out
In in vitro studies, ERK 1/2 activation by 1 µM ligands or 0.1 µM Ang II incubated for 10 min was measured using COS7 cells that overexpressed AT1 wild-type and mutant receptors. ERK activity was measured in cells maintained for 18 h in DMEM containing 0.1% serum. […] We homogenized the cells in lysis buffer plus protease inhibitors and determined the protein concentration using the bicinchoninic acid method. […] The signal was independently quantified by digital image analysis (ImageJ, National Institutes of Health, Bethesda, MD, USA).

The values below come from article PMC10216478, “Development of a Non-Peptide Angiotensin II Type 1 Receptor Ligand by Structural Modification of Olmesartan as a Biased Agonist” (Biomedicines, 2023).

Numbering of substitutions follows the chain as printed.

As to [Sar^1, Ile^4, Ile^8]Ang II, the “Gq-dependent inositol phosphate (IP) production” value in the assay on AT1 receptor is “did not increase”. Further, in assay [1], the “Gq-independent ERK 1/2 activation” value is “still activated”.
Take “angiotensin II [Ang II, reference compound]”: the “Effect on IP production” value on AT1 wild-type receptor [2], on AT1 L112A receptor [3] and at AT1 Q257A receptor [4] was “significantly increased IP production” throughout. The ERK1/2 activation entry on AT1 wild-type receptor [5], at AT1 L112A receptor [6] and on AT1 Q257A receptor [7] was “significantly activated ERK1/2” throughout.
